Patent publication US11292791B2 (priority 2017, dated 2022)

The compounds below were run against BRD4 (Homo sapiens (Human), UniProt O60885). Conditions: read-out: BRD4 IC50 (μM gmean).

SMILES	IC50 [µM]
COC(=O)N1c2ccc3c(nc(C(C)Cn4cc(C)cn4)n3C3CCS(=O)(=O)C3)c2CC[C@@H]1C (some centres unmarked) [Example 844]	1 to 1000
COC(=O)N1c2ccc3c(nc(CC(C(=O)O)c4ccc(F)c(F)c4)n3C3CCCC3)c2CC[C@@H]1C (some centres unmarked) [Example 751]	1 to 1000
COC(=O)N1c2ccc3c(nc(Cc4ccccc4C(=O)O)n3C3CCOCC3)c2CC[C@@H]1C [Example 778]	1 to 1000
COC(=O)N1c2ccc3c(nc(CC(=O)N4CCCC4)n3[C@@H]3CCC[C@@H](C(=O)O)C3)c2CC[C@@H]1C [Example 798]	1 to 1000
COC(=O)N1c2ccc3c(nc(C(C)OC4CCOCC4)n3C3CCC(C(=O)O)CC3)c2CC[C@@H]1C (some centres unmarked) [Example 724]	1 to 1000
COC(=O)N1c2ccc3c(nc(CCn4cccn4)n3CC(=O)NCc3ccno3)c2CC[C@@H]1C [Example 367]	1 to 1000
COC(=O)N1c2ccc3c(nc(C(C)Cn4cccn4)n3C3CCCC(C(=O)O)C3)c2CC[C@@H]1C (some centres unmarked) [Example 583]	1 to 1000
COC(=O)N1c2ccc3c(nc(CN4CCC5(CCC5)CC4=O)n3[C@@H]3CCC[C@@H](C(=O)O)C3)c2CC[C@@H]1C [Example 634]	1 to 1000
COC(=O)N1c2ccc3c(nc(Cc4cccc(OC(C)C)c4)n3C3CC4(CNC4)C3)c2CC[C@@H]1C [Example 99]	1 to 1000
COC(=O)N1c2ccc3c(nc(Nc4ccncc4F)n3[C@H]3CC[C@H](C(=O)O)CC3)c2CC[C@@H]1C [Example 933]	1 to 1000
COC(=O)N1c2ccc3c(nc(CCn4cccn4)n3CCNCc3cnn(C)c3)c2CC[C@@H]1C [Example 293]	1 to 1000
COC(=O)N1c2ccc3c(nc(CC(C(=O)O)c4ccc(Cl)cc4)n3C3CCCOC3)c2CC[C@@H]1C (some centres unmarked) [Example 900]	1 to 1000
COC(=O)N1c2ccc3c(nc(C[C@@H](C)c4ccccc4)n3C)c2CC[C@@H]1C [Example 1, methyl (S)-3,7-dimethyl-2-((R)-2-phenylpropyl)-3,7,8,9-tetrahydro-6H-imidazo[4,5-f]quinoline-6-carboxylate]	1 to 1000
COC(=O)N1c2ccc3c(nc(CCn4ccccc4=O)n3CC(=O)N3CCn4ccnc4C3)c2CC[C@@H]1C [Example 402]	1 to 1000
COC(=O)N1c2ccc3c(nc(C(C)Cc4cnn(C)c4)n3C3CCC(C(=O)O)CC3)c2CC[C@@H]1C (some centres unmarked) [Example 894]	1 to 1000
COC(=O)N1c2ccc3c(nc(CCn4cccn4)n3CC(=O)NCC3(C)COC3)c2CC[C@@H]1C [Example 364]	1 to 1000
COC(=O)N1c2ccc3c(nc(CC(C(=O)O)c4ccc(C)cc4)n3C3CCCOC3)c2CC[C@@H]1C (some centres unmarked) [Example 539]	1 to 1000
COC(=O)N1c2ccc3c(nc(CC(C(=O)O)c4ccc(C)c(F)c4)n3C3CCCOC3)c2CC[C@@H]1C (some centres unmarked) [Example 446]	1 to 1000
COC(=O)N1c2ccc3c(nc(CC(C(=O)O)c4ccccc4)n3C3CCCC(OC)C3)c2CC[C@@H]1C (some centres unmarked) [Example 475]	1 to 1000
COC(=O)N1c2ccc3c(nc(CC(C(=O)O)c4ccc(C(F)F)cc4)n3C3COCC(F)(F)C3)c2CC[C@@H]1C (some centres unmarked) [Example 920]	1 to 1000
COC(=O)N1c2ccc3c(nc(Cc4ccc(C)cc4)n3[C@@H]3CCC[C@@H](C(=O)O)C3)c2CC[C@@H]1C [Example 549]	1 to 1000
COC(=O)N1c2ccc3c(nc(CC(C(=O)O)c4ccc(C(C)C)cc4)n3C3CCCOC3)c2CC[C@@H]1C (some centres unmarked) [Example 756]	1 to 1000

SMILES	IC50 [µM]
COC(=O)N1c2ccc3c(nc(CCc4ccccc4C(=O)O)n3C3CCOCC3)c2CC[C@@H]1C [Example 743]	1 to 1000
COC(=O)N1c2ccc3c(nc(Nc4ccc(F)cc4)n3[C@@H]3CCC[C@@H](C(=O)O)C3)c2CC[C@@H]1C [Example 876]	1 to 1000
COC(=O)N1c2ccc3c(nc(CCc4ccccc4)n3CCN(C)C)c2CC[C@@H]1C [Example 242, methyl-(7S)-3-[2-(dimethylamino)ethyl]-7-methyl-2-(2-phenylethyl)-3H,6H,7H,8H,9H-imidazo[4,5-f]quinoline-6-carboxylate]	1 to 1000
COC(=O)N1c2ccc3c(nc(S(=O)(=O)Cc4ccccc4)n3[C@@H]3CCC[C@@H](C(=O)O)C3)c2CC[C@@H]1C [Example 814]	1 to 1000
COC(=O)N1c2ccc3c(nc(Cc4ccccc4)n3[C@@H]3CCC[C@@H](c4nnn[nH]4)C3)c2CC[C@@H]1C [Example 281, methyl (S)-3-((1R,3R)-3-(1H-tetrazol-5-yl)cyclohexyl)-2-benzyl-7-methyl-3,7,8,9-tetrahydro-6H-imidazo[4,5-f]quinoline-6-carboxylate]	1 to 1000
COC(=O)N1c2ccc3c(nc(Cc4ccccc4)n3[C@H]3CC[C@](C)(C(=O)O)CC3)c2CC[C@@H]1C [Example 25]	1 to 1000
COC(=O)N1c2ccc3c(nc(C(C)Oc4cnccn4)n3C3CCC(C(=O)O)CC3)c2CC[C@@H]1C (some centres unmarked) [Example 887]	1 to 1000
COC(=O)N1c2ccc3c(nc(CC(C(=O)O)c4cccc(F)c4)n3C3CCCOC3)c2CC[C@@H]1C (some centres unmarked) [Example 728]	1 to 1000
COC(=O)N1c2ccc3c(nc(Cn4cc(Cl)cn4)n3[C@H]3CC[C@H](C(=O)O)CC3)c2CC[C@@H]1C [Example 737]	1 to 1000
COC(=O)N1c2ccc3c(nc(CCn4cccn4)n3CCNCCN3CCNC3=O)c2CC[C@@H]1C [Example 307]	1 to 1000
COC(=O)N1c2ccc3c(nc(Cc4ccc(OC)cc4)n3C3CCC4(CC3)CNC4)c2CC[C@@H]1C [Example 108]	1 to 1000
COC(=O)N1c2ccc3c(nc(C(=O)Nc4ccccc4)n3[C@@H]3CCC[C@@H](C(=O)O)C3)c2CC[C@@H]1C [Example 948]	1 to 1000
COC(=O)N1c2ccc3c(nc(CC(C(=O)O)c4cccc(C(F)F)c4)n3C3CCCOC3)c2CC[C@@H]1C (some centres unmarked) [Example 868]	1 to 1000
COC(=O)N1c2ccc3c(nc(CC4CCC(C#N)CC4)n3C3CCCC(C(=O)O)C3)c2CC[C@@H]1C (some centres unmarked) [Example 726]	1 to 1000
COC(=O)N1c2ccc3c(nc(CCn4cccn4)n3CCN3CC[C@H](C(N)=O)C3)c2CC[C@@H]1C [Example 303]	1 to 1000
COC(=O)N1c2ccc3c(nc(S(=O)(=O)c4ccccc4)n3[C@@H]3CCC[C@@H](C(=O)O)C3)c2CC[C@@H]1C [Example 813]	1 to 1000
COC(=O)N1c2ccc3c(nc(Cc4ccc(C#N)cc4)n3[C@H]3CC[C@H](C(=O)O)CC3)c2CC[C@@H]1C [Example 744]	1 to 1000
COC(=O)N1c2ccc3c(nc(C(C)Cn4cc(C)cn4)n3C3CCC(C(=O)O)CC3)c2CC[C@@H]1C (some centres unmarked) [Example 655]	1 to 1000
COC(=O)N1c2ccc3c(nc(CCn4ccccc4=O)n3CC(=O)N3CCC(C#N)CC3)c2CC[C@@H]1C [Example 396]	1 to 1000
COC(=O)N1c2ccc3c(nc(C4(c5cnccn5)CC4)n3[C@@H]3CCC[C@@H](C(=O)O)C3)c2CC[C@@H]1C [Example 856]	1 to 1000
COC(=O)N1c2ccc3c(nc(Cc4ccccc4)n3-c3cccc(C(=O)O)c3)c2CC[C@@H]1C [Example 44]	1 to 1000
COC(=O)N1c2ccc3c(nc(Cc4ccc(N5CCCC5=O)cc4)n3[C@@H]3CCC[C@@H](C(=O)O)C3)c2CC[C@@H]1C [Example 858]	1 to 1000

SMILES	IC50 [µM]
COC(=O)N1c2ccc3c(nc(CCn4ccccc4=O)n3CC(=O)NCc3cccnc3)c2CC[C@@H]1C [Example 375]	1 to 1000
COC(=O)N1c2ccc3c(nc(C(C)Cc4ccc(F)c(F)c4)n3C3CCCC(C(=O)O)C3)c2CC[C@@H]1C (some centres unmarked) [Example 720]	1 to 1000
COC(=O)N1c2ccc3c(nc(CC(C(=O)O)c4ccc5ccccc5c4)n3C3CCCOC3)c2CC[C@@H]1C (some centres unmarked) [Example 468]	1 to 1000
COC(=O)N1c2ccc3c(nc(C(C)Cn4ccc(C)n4)n3C3CCCC(C(=O)O)C3)c2CC[C@@H]1C (some centres unmarked) [Example 485]	1 to 1000
COC(=O)N1c2ccc3c(nc(Cc4cc(F)cc(OC)c4)n3[C@@H]3CCC[C@@H](C(=O)O)C3)c2CC[C@@H]1C [Example 541]	1 to 1000
COC(=O)N1c2ccc3c(nc(CCn4ccccc4=O)n3CCS(C)(=O)=O)c2CC[C@@H]1C [Example 273]	1 to 1000
COC(=O)N1c2ccc3c(nc(CC(C(=O)O)c4ccc5ccccc5c4)n3C3CCCOC3)c2CC[C@@H]1C (some centres unmarked) [Example 870]	1 to 1000
COC(=O)N1c2ccc3c(nc(C(=O)NC4CCCC4)n3[C@@H]3CCC[C@@H](C(=O)O)C3)c2CC[C@@H]1C [Example 922]	1 to 1000
COC(=O)N1c2ccc3c(nc(Nc4cc(C)nn4C)n3[C@@H]3CCC[C@@H](C(=O)O)C3)c2CC[C@@H]1C [Example 916]	1 to 1000
COC(=O)N1c2ccc3c(nc(C(C)Cn4ccc(C)n4)n3C3CCC(C(=O)O)CC3)c2CC[C@@H]1C (some centres unmarked) [Example 824]	1 to 1000
COC(=O)N1c2ccc3c(nc(CCn4cccn4)n3CC(=O)NCC3(O)CCC3)c2CC[C@@H]1C [Example 362]	1 to 1000
C/C=C(/Oc1ccccc1)c1nc2c3c(ccc2n1[C@H]1CC[C@H](C(=O)O)CC1)N(C(=O)OC)[C@@H](C)CC3 [Example 821]	1 to 1000
COC(=O)N1c2ccc3c(nc(Cc4ccc(Cl)cn4)n3[C@@H]3CCC[C@@H](C(=O)O)C3)c2CC[C@@H]1C [Example 663]	1 to 1000
COC(=O)N1c2ccc3c(nc(N(C)c4ccc(Cl)cc4)n3[C@H]3CC[C@H](C(=O)O)CC3)c2CC[C@@H]1C [Example 691]	1 to 1000
COC(=O)N1c2ccc3c(nc(CCn4cccn4)n3CC(=O)N[C@H]3CC[C@H](CO)CC3)c2CC[C@@H]1C [Example 348]	1 to 1000
COC(=O)N1c2ccc3c(nc(CCn4cccn4)n3CCN(C)CC(=O)N(C)C)c2CC[C@@H]1C [Example 297]	1 to 1000
COC(=O)N1c2ccc3c(nc(C(O)c4ccc(Cl)cn4)n3C3CCCC(C(=O)O)C3)c2CC[C@@H]1C (some centres unmarked) [Example 610]	1 to 1000
COC(=O)N1c2ccc3c(nc(Cc4ccc5[nH]ccc5c4)n3[C@@H]3CCC[C@@H](C(=O)O)C3)c2CC[C@@H]1C [Example 577]	1 to 1000
COC(=O)N1c2ccc3c(nc(CC(C(=O)O)c4ccccc4)n3C3COCC(F)(F)C3)c2CC[C@@H]1C (some centres unmarked) [Example 891]	1 to 1000
COC(=O)N1c2ccc3c(nc(Cc4cccc(C#N)c4)n3[C@H]3CC[C@H](C(=O)O)CC3)c2CC[C@@H]1C [Example 707]	1 to 1000
COC(=O)N1c2ccc3c(nc(CCn4cccn4)n3CC(=O)N3CCC(CO)CC3)c2CC[C@@H]1C [Example 353]	1 to 1000
